Reference: the supplement of paper PMC11061612

Tests used:
[1] = test system: NCI-H520 (Squamous Cell Lung Carcinoma); experiment: combination Emax (second highest fraction inhibited in the dose matrix, 72 h); higher = more inhibition; extreme values may be limits of the assay
Method in brief: (§1)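 Bliss excess equals the observed combination effect minus the expected value EA + EB − EA·EB, where EA and EB are the effects of each agent alone. Combination Emax is the second-highest inhibition within the matrix. Inhibition was scaled from CellTiter-Glo 2.0 luminescence, with 0 set by vehicle wells and 1 by blank wells, after 72 hours of two-drug dosing of cells plated in 1536-well plates.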

[2] = test system: OCI-AML3 (Acute Myeloid Leukemia); experiment: as above
Method in brief: as §1

SJSA-1 (Osteosarcoma) [3] = experiment: as above
Method in brief: as §1

[4] = test system: KU812 (Chronic Myelogenous Leukemia); experiment: as above
Method in brief: as §1

[5] = test system: VMRC-RCZ (Kidney Carcinoma); experiment: as above
Method in brief: as §1

[6] = test system: NCI-H526 (Small Cell Lung Carcinoma); experiment: as above
Method in brief: as §1

[7] = test system: ST486 (Burkitt's Lymphoma); experiment: as above
Method in brief: as §1

NCI-H2731 (Mesothelioma) [8] = experiment: as above
Method in brief: as §1

[9] = test system: NCI-H929 (Plasma Cell Myeloma); experiment: as above
Method in brief: as §1

[10] = test system: KYSE-270 (Esophageal Squamous Cell Carcinoma); experiment: as above
Method in brief: as §1

[11] = test system: MN-60 (B-Lymphoblastic Leukemia); experiment: as above
Method in brief: as §1

[12] = test system: NCCIT (Other Solid Carcinomas); experiment: as above
Method in brief: as §1

[13] = test system: KP-3 (Pancreatic Carcinoma); experiment: as above
Method in brief: as §1

[14] = test system: COR-L279 (Small Cell Lung Carcinoma); experiment: as above
Method in brief: as §1

[15] = test system: T-T (Esophageal Squamous Cell Carcinoma); experiment: as above
Method in brief: as §1

M059J (Glioblastoma) [16] = experiment: as above
Method in brief: as §1

[17] = test system: MOG-G-CCM (Low Grade Glioma); experiment: as above
Method in brief: as §1

[18] = test system: DMS-114 (Small Cell Lung Carcinoma); experiment: as above
Method in brief: as §1

[19] = test system: SK-GT-4 (Esophageal Adenocarcinoma); experiment: as above
Method in brief: as §1

[20] = test system: NCI-H3122 (Lung Adenocarcinoma); experiment: as above
Method in brief: as §1

[21] = test system: CW-2 (Colorectal Carcinoma); experiment: as above
Method in brief: as §1

[22] = test system: NCI-H520 (Squamous Cell Lung Carcinoma); experiment: Bliss excess, mean over the matrix (fraction); higher = more synergy
Method in brief: as §1

[23] = test system: OCI-AML3 (Acute Myeloid Leukemia); experiment: as above
Method in brief: as §1

SJSA-1 (Osteosarcoma) [24] = experiment: as above
Method in brief: as §1

[25] = test system: KU812 (Chronic Myelogenous Leukemia); experiment: as above
Method in brief: as §1

[26] = test system: VMRC-RCZ (Kidney Carcinoma); experiment: as above
Method in brief: as §1

[27] = test system: NCI-H526 (Small Cell Lung Carcinoma); experiment: as above
Method in brief: as §1

[28] = test system: ST486 (Burkitt's Lymphoma); experiment: as above
Method in brief: as §1

NCI-H2731 (Mesothelioma) [29] = experiment: as above
Method in brief: as §1

[30] = test system: NCI-H929 (Plasma Cell Myeloma); experiment: as above
Method in brief: as §1

[31] = test system: KYSE-270 (Esophageal Squamous Cell Carcinoma); experiment: as above
Method in brief: as §1

[32] = test system: MN-60 (B-Lymphoblastic Leukemia); experiment: as above
Method in brief: as §1

[33] = test system: NCCIT (Other Solid Carcinomas); experiment: as above
Method in brief: as §1

[34] = test system: KP-3 (Pancreatic Carcinoma); experiment: as above
Method in brief: as §1

[35] = test system: COR-L279 (Small Cell Lung Carcinoma); experiment: as above
Method in brief: as §1

[36] = test system: T-T (Esophageal Squamous Cell Carcinoma); experiment: as above
Method in brief: as §1

M059J (Glioblastoma) [37] = experiment: as above
Method in brief: as §1

[38] = test system: MOG-G-CCM (Low Grade Glioma); experiment: as above
Method in brief: as §1

[39] = test system: DMS-114 (Small Cell Lung Carcinoma); experiment: as above
Method in brief: as §1

[40] = test system: SK-GT-4 (Esophageal Adenocarcinoma); experiment: as above
Method in brief: as §1

[41] = test system: NCI-H3122 (Lung Adenocarcinoma); experiment: as above
Method in brief: as §1

[42] = test system: CW-2 (Colorectal Carcinoma); experiment: as above
Method in brief: as §1

O=C(c1cc(Cc2n[nH]c(=O)c3ccccc23)ccc1F)N1CCN(C(=O)C2CC2)CC1 [Olaparib] + CC1(C)CCC(CN2CCN(c3ccc(C(=O)NS(=O)(=O)c4ccc(NCC5CCOCC5)c([N+](=O)[O-])c4)c(Oc4cnc5[nH]ccc5c4)c3)CC2)=C(c2ccc(Cl)cc2)C1 [Venetoclax] (first compound max 10 µM, 7x7, partner max 1 µM)
combination Emax [1]: 0.119 | combination Emax [2]: 0.427 | combination Emax (SJSA-1 (Osteosarcoma) [3]): 0.118 | combination Emax [4]: 0.403 | combination Emax [5]: 0.0266 | combination Emax [6]: 0.862 | combination Emax [7]: 0.217 | combination Emax (NCI-H2731 (Mesothelioma) [8]): 0.0659 | combination Emax [9]: 0.21 | combination Emax [10]: 0.302 | combination Emax [11]: 0.222 | combination Emax [12]: 0.231 | combination Emax [13]: 0.0923 | combination Emax [14]: 0.943 | combination Emax [15]: 0.177 | combination Emax (M059J (Glioblastoma) [16]): 0.291 | combination Emax [17]: 0.168 | combination Emax [18]: 0.262 | combination Emax [19]: 0.101 | combination Emax [20]: 0.226 | combination Emax [21]: 0.118 | Bliss excess [22]: -0.0201 | Bliss excess [23]: 0.0202 | Bliss excess (SJSA-1 (Osteosarcoma) [24]): -0.0375 | Bliss excess [25]: -0.0241 | Bliss excess [26]: -0.052 | Bliss excess [27]: 0.0372 | Bliss excess [28]: -0.0134 | Bliss excess (NCI-H2731 (Mesothelioma) [29]): -0.047 | Bliss excess [30]: -0.0036 | Bliss excess [31]: -0.0027 | Bliss excess [32]: -0.0502 | Bliss excess [33]: 0.0127 | Bliss excess [34]: -0.0562 | Bliss excess [35]: 0.0109 | Bliss excess [36]: -0.0375 | Bliss excess (M059J (Glioblastoma) [37]): -0.0001 | Bliss excess [38]: -0.0459 | Bliss excess [39]: -0.0446 | Bliss excess [40]: -0.056 | Bliss excess [41]: -0.0681 | Bliss excess [42]: -0.0299
